From patent publication US20240383784A1, “ANTIMICROBIAL SYSTEM AND METHOD” (KEMIRA OYJ, priority 2021, published 2024)

How the values were obtained:
[1] = system: Meiothermus silvanus biofilms; experiment: Biofilm test on 96-microwell peg lids in synthetic paper machine water, Crystal Violet quantification; format: cell-based; details: SPW; for Impact (biofilm reduction percentage): 45° C., 150 rpm
Source text: (§1) Pure cultures of Meiothermus silvanus, a microbe species commonly found in paper machine biofilms (Ekman J, Journal of Industrial Microbiology & Biotechnology 34:203-211) and Pseudoxanthomonas taiwanensis, another species commonly found in paper machine environments (Desjardins, E & Beaulieu, C, Journal of Industrial Microbiology & Biotechnology 30:141-145) were used to study the efficacy of various chemicals to prevent biofilm formation.
(§2) Biofilm tests were done in fibre-containing synthetic paper machine water, SPW (prepared according to Peltola, et al., J. Ind. Microbiol. Biotechnol. 38: 1719-1727) using 96-microwell plate wells with peg lids (Thermo Fischer Scientific Inc., USA). Plates were incubated at 45° C. with a rotary shaking (150 rpm) providing high flow in each well.
(§3) Wells of 96-microwell plates with peg-lids were filled with SPW and inoculated with the pure bacterial cultures. Biofilm was grown at 45° C. with a rotary shaking (150 rpm) for 24 hours without addition of any chemical compound to be tested.
(§4) After 24 hours from starting the test, the wells were emptied and a fresh solution of SPW, inoculated with the pure bacterial cultures and with different amounts of chemical compounds to be tested were added and the original peg-lid was placed back in place. After an additional 24 hours the wells were emptied and the biofilm amount on the pegs was quantified.
(§5) The amount of biofilm formed on the peg surfaces was quantified with a staining solution by adding 200 μl of 1% Crystal Violet (Merck Millipore KGaA, Germany) in methanol to each well in a clean 96-well plate and placing the biofilm-containing peg-lid on it. After 3 minutes the wells were emptied and the wells and pegs were rinsed 3 times with tap water. Finally the peg-lid was placed in a clean 96-well plate, the attached Crystal Violet was dissolved into ethanol and the absorbance at 595 nm was measured.
(§6) All parts per million (ppm) amounts given in Examples 1-2 are as active ingredients. The Impact values are calculated as biofilm reduction percentages based on a comparison with no added chemicals. A positive value indicates a reduction in amount of biofilm whereas a negative value indicates an increase in the amount of biofilm.

[2] = system: Pseudoxanthomonas taiwanensis biofilms; experiment: as above; format: cell-based; details: SPW; for Impact (biofilm reduction percentage): 45° C., 150 rpm
Source text: as §1, §2, §3, §4, §5, §6

[3] = Sodium hypochlorite 4 ppm alone
[4] = Sodium hypochlorite 8 ppm alone
[5] = on its own, up to a dosage of 8 or 16 ppm

NCl [MCA, Monochloramine]
Impact (biofilm reduction percentage) ([1]; MCA 0.5 ppm alone): −22% | Impact (biofilm reduction percentage) ([1]; MCA 1 ppm alone): 4% | Impact (biofilm reduction percentage) ([1]; MCA 1.5 ppm alone): −2% | biofilm reduction efficacy (in words) ([1]; at low dosages): ineffective | Impact (biofilm reduction percentage) ([2]; MCA 0.5 ppm alone): −11% | Impact (biofilm reduction percentage) ([2]; MCA 1 ppm alone): −3% | Impact (biofilm reduction percentage) ([2]; MCA 1.5 ppm alone): 7% | biofilm reduction efficacy (in words) ([2]; at low dosages): ineffective

Cc1ccc(S(=O)(=O)C=CC#N)cc1 [Compound A, 3-[(4-methylphenyl)sulphonyl]-2-propenenitrile]
Impact (biofilm reduction percentage) ([1]; Compound A 0.15 ppm alone, Table 1): 7% | Impact (biofilm reduction percentage) ([1]; Compound A 0.3 ppm alone, Table 1): −7% | Impact (biofilm reduction percentage) ([1]; Compound A 0.3 ppm alone, Table 3): −15% | Impact (biofilm reduction percentage) ([1]; Compound A 0.45 ppm alone, Table 3): 11% | biofilm reduction efficacy (in words) ([1]; at low dosages): ineffective | Impact (biofilm reduction percentage) ([2]; Compound A 0.15 ppm alone, Table 2): 5% | Impact (biofilm reduction percentage) ([2]; Compound A 0.15 ppm alone, Table 4): 19% | Impact (biofilm reduction percentage) ([2]; Compound A 0.3 ppm alone, Table 2): 7% | biofilm reduction efficacy (in words) ([2]; at low dosages): ineffective

OCl [Sodium hypochlorite, reference compound]
Impact (biofilm reduction percentage) ([1]; Sodium hypochlorite 2 ppm alone): −71% | Impact (biofilm reduction percentage) [1, 3]: 1% | Impact (biofilm reduction percentage) [1, 4]: 5% | biofilm reduction efficacy (in words) [1, 5]: ineffective | Impact (biofilm reduction percentage) [2, 3]: −3% | Impact (biofilm reduction percentage) [2, 4]: −5% | Impact (biofilm reduction percentage) ([2]; Sodium hypochlorite 16 ppm alone): 0% | biofilm reduction efficacy (in words) [2, 5]: ineffective
